Laboratory results published in patent publication US12486216B2, “Processes for preparing nitrosylated propanediols, compositions comprising the same, and medical uses thereof” (ATTGENO AB, priority 2018, dated 2025).

What was measured:
[1] = Stability of non-aqueous mixtures of the nitrites in 1,2-propanediol (GC); type: physicochemical
Experimental: Three different concentrations of 1-(nitrosooxy)-propan-2-ol and 2-(nitrosooxy)-propan-1-ol in 1,2-propanediol were prepared and stored in both a refrigerator (5° C.) and freezer (−20° C.). Aliquots of each solution were taken periodically and analysed by GC to determine the concentration of 1-(nitrosooxy)-propan-2-ol and 2-(nitrosooxy)-propan-1-ol.
The results of the GC analysis are shown in the table below (column: Rxi-5Sil MS, 20 m×0.18 mm, […]; carrier: He; Inlet: 250° C., split ratio 100:1; constant flow: 1.0 mL/min; oven temperature profile: 40° C. (3 min), 10° C./min, 80° C. (0 min), 30° C./min, 250° C. (3 min); FID: 300° C., H2 flow 30 mL/min, air flow 400 mL/min, make-up flow (N2) 25 mL/min; internal standard: 1,1,1,3,5,5,5-heptamethyl trisiloxane): […]

anesthetised pigs = assay: Pharmacological investigation of 1,2-PDNO—R, 1,2-PDNO—S and 1,3-PDNO in anesthetised pigs; type: in vivo, pig; details: pH approximately 8
Description: Prior to experimentation, ethical approval was received from Linköping's regional animal ethics committee (Linköping, Sweden; approval number 953). In brief, 2 male and female pigs (a crossbreed between Swedish country breed, Hampshire and Yorkshire; 3-4 months old; 24-26 kg) were premedicated with azaperone at the farm and transported to the laboratory. At the laboratory, anaesthesia was induced with a mixture of tiletamine, zolazepam and azaperone (intramuscular injection). Propofol was given in a peripheral venous catheter in an ear vein, if needed. Bolus doses of atropine and cefuroxime were administered intravenously. The animals were endotracheally intubated and mechanically ventilated (5 cm H2O in positive end-expiratory pressure, minute ventilation was adjusted to normoventilation). General anaesthesia was maintained with propofol and fentanyl via continuous intravenous infusions, and additional bolus doses were given if needed. Ringer's acetate and glucose solutions were continuously administered intravenously to substitute for fluid loss. Heparin was given as an intravenous bolus dose after the surgical instrumentation. After the experiments the animals were killed in general anaesthesia with a propofol injection followed by a rapid intravenous injection of potassium chloride (40 mmol), and asystolia was confirmed.
The animals were instrumented with an arterial catheter in the right carotid artery for measurement of systemic arterial blood pressure and heart rate. A sheath was placed in the right external jugular vein for introduction of a pulmonary-arterial catheter. This catheter was used for continuous measurement of pulmonary arterial blood pressure, semi-continuous cardiac output and intermittent pulmonary wedge pressure. […] Respiratory gases, pressures and volumes were measured at the endotracheal tube. Respiratory and hemodynamic variables were measured by a Datex AS/3 (Helsinki, Finland) and data were collected by a computerised system (MP100 or MP150/Acknowledge 3.9.1, BIOPAC systems, Goleta, CA, USA). […]

[2] = system: anesthetised and mechanically ventilated pigs with U46619-induced pulmonary hypertension; assay: In vivo study in pigs with U46619-induced pulmonary hypertension, PDNO infusion vs inhaled NO; details: for mean pulmonary arterial pressure / pulmonary vascular resistance: median (interquartile range)
[3] = Freezer (−20° C.), 10 days, Low conc.
[4] = Freezer (−20° C.), 10 days, Medium conc.
[5] = Freezer (−20° C.), 14 days, High conc.
[6] = Freezer (−20° C.), 27 days, Low conc.
[7] = Freezer (−20° C.), 27 days, Medium conc.
[8] = Freezer (−20° C.), 28 days, High conc.
[9] = Freezer (−20° C.), 56 days, High conc.
[10] = Freezer (−20° C.), 64 days, Low conc.
[11] = Freezer (−20° C.), 64 days, Medium conc.
[12] = Freezer (−20° C.), 84 days, High conc.
[13] = Freezer (−20° C.), 84 days, Low conc.
[14] = Freezer (−20° C.), 84 days, Medium conc.
[15] = Freezer (−20° C.), Start, High conc.
[16] = Freezer (−20° C.), Start, Low conc.
[17] = Freezer (−20° C.), Start, Medium conc.
[18] = Refrigerator (5° C.), 10 days, Low conc.
[19] = Refrigerator (5° C.), 10 days, Medium conc.
[20] = Refrigerator (5° C.), 14 days, High conc.
[21] = Refrigerator (5° C.), 27 days, Low conc.
[22] = Refrigerator (5° C.), 27 days, Medium conc.
[23] = Refrigerator (5° C.), 28 days, High conc.
[24] = Refrigerator (5° C.), 56 days, High conc.
[25] = Refrigerator (5° C.), 64 days, Low conc.
[26] = Refrigerator (5° C.), 64 days, Medium conc.
[27] = Refrigerator (5° C.), 84 days, High conc.
[28] = Refrigerator (5° C.), 84 days, Low conc.
[29] = Refrigerator (5° C.), 84 days, Medium conc.
[30] = Refrigerator (5° C.), Start, High conc.
[31] = Refrigerator (5° C.), Start, Low conc.
[32] = Refrigerator (5° C.), Start, Medium conc.
[33] = 10-15 min iv infusion (1,2-PDNO—R and —S 43, 1,3-PDNO 30 nmol kg^−1 min^−1) into sodium bicarbonate carrier
[34] = PDNO iv 15-60 nmol kg^−1 min^−1 or inhaled NO 5-40 ppm, during U46619
[35] = PDNO or inhaled NO during U46619, data not shown
[36] = U46619 infusion alone, data not shown

Molecule | Concentration [1, 3] [% w/w] | Concentration [1, 4] [% w/w] | Concentration [1, 5] [% w/w] | Concentration [1, 6] [% w/w] | Concentration [1, 7] [% w/w] | Concentration [1, 8] [% w/w] | Concentration [1, 9] [% w/w] | Concentration [1, 10] [% w/w] | Concentration [1, 11] [% w/w] | Concentration [1, 12] [% w/w] | Concentration [1, 13] [% w/w] | Concentration [1, 14] [% w/w] | Concentration [1, 15] [% w/w] | Concentration [1, 16] [% w/w] | Concentration [1, 17] [% w/w] | Concentration [1, 18] [% w/w] | Concentration [1, 19] [% w/w] | Concentration [1, 20] [% w/w] | Concentration [1, 21] [% w/w] | Concentration [1, 22] [% w/w] | also measured
CC(O)CON=O (stereo not shown) [1-Nitrite, 1-(nitrosooxy)-propan-2-ol] | 0.08 | 0.81 | 3.76 | 0.07 | 0.74 | 3.72 | 3.55 | 0.07 | 0.74 | 3.50 | 0.08 | 0.78 | 3.75 | 0.08 | 0.81 | 0.08 | 0.86 | 3.72 | 0.09 | 0.81 | Concentration [1, 23]: 3.67 % w/w; Concentration [1, 24]: 3.47 % w/w; Concentration [1, 25]: 0.07 % w/w; Concentration [1, 26]: 0.73 % w/w; Concentration [1, 27]: 3.33 % w/w; Concentration [1, 28]: 0.07 % w/w; Concentration [1, 29]: 0.77 % w/w; Concentration [1, 30]: 3.75 % w/w; Concentration [1, 31]: 0.08 % w/w; Concentration [1, 32]: 0.81 % w/w
O=NOCCCO [1,3-PDNO, 1-(nitrosooxy)propan-3-ol] | – | – | – | – | – | – | – | – | – | – | – | – | – | – | – | – | – | – | – | – | Effect on mean pulmonary arterial pressure (anesthetised pigs; [33]): decreased; Effect on mean systemic arterial pressure (anesthetised pigs; [33]): decreased; Vasodilation (anesthetised pigs; 10-15 min iv infusion into sodium bicarbonate carrier): caused systemic and pulmonary vasodilation
nitric oxide [inhaled NO] | – | – | – | – | – | – | – | – | – | – | – | – | – | – | – | – | – | – | – | – | Effect on pulmonary arterial pressure ([2]; PDNO iv 15-60 nmol kg^−1 min^−1 in sodium bicarbonate carrier or inhaled NO 5-40 ppm, during U46619): significantly reduced; Effect on methemoglobin concentration ([2]; PDNO iv 15-60 nmol kg^−1 min^−1 or inhaled NO 5-40 ppm, arterial blood): No drug significantly affected; Effect on mean arterial pressure [2, 34]: No drug significantly affected; Effect on pulmonary vascular resistance [2, 34]: significantly reduced; Effect on systemic vascular resistance [2, 34]: No drug significantly affected; Effect on arterial partial pressure of oxygen [2, 35]: increased this variable towards normal; Effect on cardiac output [2, 35]: no drug significantly changed; Pulmonary-to-systemic vascular resistances ratio compared to the PDNO group ([2]; at the highest doses, data not shown): slightly lower; Effect on pulmonary-to-systemic vascular resistances ratio ([2]; during U46619, data not shown): significantly decreased; Trend in methemoglobin concentration ([2]; inhaled NO group, associated to dose of delivered NO): tendency for an increase
CCCCCC(O)C=CC1C2CC(CO2)C1CC=CCCCC(=O)O (stereo not drawn) [U46619, 9,11-dideoxy-9α, 11α-methanoepoxy PGF2α] | – | – | – | – | – | – | – | – | – | – | – | – | – | – | – | – | – | – | – | – | Effect on arterial partial pressure of oxygen [2, 36]: slightly decreased; Effect on cardiac output [2, 36]: slightly decreased; mean pulmonary arterial pressure ([2]; during iv U46619 60-150 ng kg^−1 min^−1, before NO inhalation): 43 (37-48) mmHg; mean pulmonary arterial pressure ([2]; during iv U46619 60-150 ng kg^−1 min^−1, before PDNO infusion): 43 (41-46) mmHg; pulmonary vascular resistance ([2]; during iv U46619, before NO inhalation): 8.3 (6.7-11.7) mmHg min l^−1; pulmonary vascular resistance ([2]; during iv U46619, before PDNO infusion): 9.8 (7.7-12.5) mmHg min l^−1
CC(CO)ON=O (stereo not shown) [2-Nitrite, 2-(nitrosooxy)-propan-1-ol] | 0.06 | 0.63 | 2.89 | 0.06 | 0.57 | 2.93 | 2.74 | 0.06 | 0.58 | 2.71 | 0.06 | 0.62 | 2.94 | 0.06 | 0.61 | 0.06 | 0.67 | 2.91 | 0.07 | 0.63 | Concentration [1, 23]: 2.90 % w/w; Concentration [1, 24]: 2.69 % w/w; Concentration [1, 25]: 0.06 % w/w; Concentration [1, 26]: 0.57 % w/w; Concentration [1, 27]: 2.59 % w/w; Concentration [1, 28]: 0.06 % w/w; Concentration [1, 29]: 0.60 % w/w; Concentration [1, 30]: 2.94 % w/w; Concentration [1, 31]: 0.06 % w/w; Concentration [1, 32]: 0.61 % w/w
